Laboratory results from publication PMC8079065, “Design, synthesis and in vitro and in vivo biological evaluation of flurbiprofen amides as new fatty acid amide hydrolase/cyclooxygenase-2 dual inhibitory potential analgesic agents” (Journal of Enzyme Inhibition and Medicinal Chemistry, 2021).
Like-named read-outs stand apart in the source and are kept apart here.

What was measured:
FAAH [1] = molecular target: T1, FAAH (Rattus norvegicus, UniProt P97612); conditions: shown for comparative purposes, cited from earlier work; for IC50: rat brain, read-out: IC50 for inhibition of rat brain AEA hydrolysis
T1 construct: rat or mouse brain homogenates as the enzyme source; from tissue; host or cells: rat brain (minus cerebellum), Wistar or Sprague-Dawley, washed membrane homogenate
T1 sequence (P97612 1-579): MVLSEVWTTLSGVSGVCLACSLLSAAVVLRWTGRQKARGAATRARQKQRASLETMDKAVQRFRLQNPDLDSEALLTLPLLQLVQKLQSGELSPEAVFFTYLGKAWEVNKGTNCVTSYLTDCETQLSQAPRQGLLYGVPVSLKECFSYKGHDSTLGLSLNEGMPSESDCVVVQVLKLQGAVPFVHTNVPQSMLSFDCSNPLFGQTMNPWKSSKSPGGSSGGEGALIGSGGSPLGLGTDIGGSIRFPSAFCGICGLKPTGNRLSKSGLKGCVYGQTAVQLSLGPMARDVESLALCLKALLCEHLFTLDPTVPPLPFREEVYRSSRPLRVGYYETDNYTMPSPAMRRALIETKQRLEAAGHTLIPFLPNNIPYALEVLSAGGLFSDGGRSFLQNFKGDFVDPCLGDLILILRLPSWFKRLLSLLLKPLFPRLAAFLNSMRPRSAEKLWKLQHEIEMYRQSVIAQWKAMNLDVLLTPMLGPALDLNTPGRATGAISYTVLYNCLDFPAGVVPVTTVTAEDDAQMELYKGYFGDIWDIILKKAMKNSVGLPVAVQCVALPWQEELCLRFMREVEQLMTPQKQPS

FAAH [2] = conditions: cited from earlier work
FAAH [3] = molecular target: T1, FAAH; assay: FAAH assay: [3H]AEA hydrolysis by rat brain homogenates; format: biochemical; conditions: for IC50: 0.5 µM [3H]AEA, rat brain homogenates; for increase in FAAH inhibitory activity versus Flu-AM1: IC50 compared with Flu-AM1; for FAAH potency versus flurbiprofen: IC50 compared with flurbiprofen
FAAH [4] = molecular target: T2, FAAH (Mus musculus, UniProt O08914); assay: FAAH assay: [3H]AEA hydrolysis by mouse brain homogenates; format: biochemical; conditions: 0.5 µM [3H]AEA
T2 construct: rat or mouse brain homogenates as the enzyme source; from tissue; host or cells: mouse brain (minus cerebellum), male B6CBAF1/J, washed membrane homogenate
T2 sequence (O08914 1-579): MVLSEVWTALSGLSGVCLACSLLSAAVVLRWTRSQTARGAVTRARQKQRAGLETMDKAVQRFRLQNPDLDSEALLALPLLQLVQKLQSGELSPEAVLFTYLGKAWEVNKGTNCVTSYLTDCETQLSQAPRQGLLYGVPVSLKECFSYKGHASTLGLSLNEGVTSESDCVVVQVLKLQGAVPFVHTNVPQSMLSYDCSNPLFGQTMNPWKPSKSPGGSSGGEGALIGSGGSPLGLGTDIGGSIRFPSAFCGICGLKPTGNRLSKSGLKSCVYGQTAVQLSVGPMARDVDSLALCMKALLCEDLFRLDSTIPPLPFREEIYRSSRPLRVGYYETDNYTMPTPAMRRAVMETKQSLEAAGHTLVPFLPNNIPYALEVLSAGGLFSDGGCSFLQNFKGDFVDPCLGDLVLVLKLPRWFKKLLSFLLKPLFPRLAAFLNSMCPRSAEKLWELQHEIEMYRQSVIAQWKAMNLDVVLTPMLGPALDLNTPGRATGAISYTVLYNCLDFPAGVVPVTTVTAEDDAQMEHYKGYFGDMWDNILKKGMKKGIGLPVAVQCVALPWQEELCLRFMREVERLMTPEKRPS

ovine COX-1 = system: T3, ovine COX-1; assay: COX-1 inhibition, oxygen electrode assay; format: biochemical; conditions: 10 µM compound, 10 µM arachidonic acid
T3 construct: purchased Cayman Chemical Co. 60100
Experimental: (§1) The assay was performed according to Meade et al.[58] with minor modifications. An oxygen electrode chamber with integral stirring (Oxygraph System, Hansatech Instruments, King’s Lynn, U.K.) was calibrated daily to ambient temperature and air pressure. The assay buffer contained 100 mM Tris-HCl buffer pH 7.4, 1 µM haematin, 2 mM phenol, 5 mM EDTA, 10 µM substrate (arachidonic acid or 2-AG) (final assay volume was 2 ml). After addition of Flu-AM4 dissolved in ethanol (final assay concentration 1%), a baseline was established for 5 min before initiation of reaction by addition of 200 units of either ovine COX-1 or human recombinant COX-2. The change in oxygen consumption as a measurement of enzyme activity was monitored for approximately 5 min.

human recombinant COX-2 = system: T4, human recombinant COX-2; assay: COX-2 inhibition, oxygen electrode assay; format: biochemical; conditions: 10 µM compound, 10 µM 2-AG
T4 construct: purchased Cayman Chemical Co. 60122
Experimental: as §1, with “[…].)” for “King’s Lynn, U.K.)”, “μM” for “µM”

CD1 male mice [5] = assay: Formalin-evoked hind-paw licking; format: in vivo; conditions: phase I and II
Experimental: (§2) The behavioural experiments were performed on CD1 male mice (25–30 g Charles Rivers-Italy). They were housed in the animal care facility of the Department Experimental of Pharmacology, University of Naples. The animals were acclimated to their environment for 1 week and had ad libitum access to standard rodent chow pellets VRF1 (purchased from Special Diet Service-SDS). All behavioural tests were performed between 9:00 AM and 13:00 PM, and the animals were only used once. Procedures involving animals and their care were conducted in conformity with international and national law and policies (EU Directive 2010/63/EU for animal experiments). The procedures reported here were approved by the Institutional Committee on the Ethics of Animal Experiments (CSV) of the University of Naples “Federico II” and by the “Ministero della Salute”, protocol no. 2014–0084607. At the end of all experiments for all pain models, the animals were euthanized by CO2 overdose.
(§3) During this study, Flu-AM4 was administered systemically (intraperitoneally) and locally (intraplantar 100 microg/paw). […]
Mice received intraplantar injections of formalin in saline (10%,vol/vol; 10 µl/paw). Paw licking was monitored by an observer blind to the experimental treatment for periods of 0–15 min (early phase) and 15–60 min (late phase) immediately after formalin administration. […]

CD1 male mice [6] = assay: Carrageenan-induced paw oedema; format: in vivo; conditions: 10 mg/kg ip, 5 min after carrageenan; p < 0.05
Experimental: The behavioural experiments were performed on CD1 male mice (25–30 g Charles Rivers-Italy). They were housed in the animal care facility of the Department Experimental of Pharmacology, University of Naples. The animals were acclimated to their environment for 1 week and had ad libitum access to standard rodent chow pellets VRF1 (purchased from Special Diet Service-SDS). All behavioural tests were performed between 9:00 AM and 13:00 PM, and the animals were only used once. Procedures involving animals and their care were conducted in conformity with international and national law and policies (EU Directive 2010/63/EU for animal experiments). The procedures reported here were approved by the Institutional Committee on the Ethics of Animal Experiments (CSV) of the University of Naples “Federico II” and by the “Ministero della Salute”, protocol no. 2014–0084607. […]
Paw edoema was induced by a subplantar injection of 0.1 ml of sterile saline containing 1% λ-carrageenan (Sigma Aldrich) into the right hind paw. Paw volumes were measured by a plethysmometer (Ugo Basile, Italy) at different times after the paw injection. The increase in paw volume was evaluated as the difference between the paw volume measured (Vm) at each time point (1, 2, 4, 6 and 48 h post carrageenan) and the basal paw volume (Vb) measured immediately before carrageenan injection (Δ volume = Vm – Vb).

CD1 male mice [7] = assay: Carrageenan-induced mechanical hyperalgesia (Randall-Selitto); format: in vivo; conditions: 10 mg/kg ip, 5 min after carrageenan
Experimental: as §2, §3
Paw withdrawal threshold (PWT) to mechanical pressure was measured with a Randall-Selitto Analgesy-Meter for mice (Ugo Basile, Italy). PWT was measured on the ispsilateral paw at 1, 2, 4, 6 and 48 h post carrageenan injection. […]

CD1 male mice [8] = assay: CCI neuropathic pain model, mechanical allodynia (von Frey test); format: in vivo; conditions: 1 h before test, day 7 and 14
Experimental: as §2
(§4) During this study, Flu-AM4 was administered systemically (intraperitoneally) and locally (intraplantar 100 microg/paw). For systemic administration, the compound was dissolved in PEG400 20% v/v, TWEEN 80 5% (v/v) and sterile saline and used at different doses (1–3–10 mg/kg). Vehicle group was only treated with PEG, TWEEN and sterile saline. For intraplantar administration Flu-AM4 was dissolved in PEG400 10% v/v, TWEEN 80 5% (v/v) and formalin 5% in sterile saline.
(§5) Neuropathic pain was induced by ligation of the sciatic nerve as described previously. […] At day 7 and 14 Mechanical Allodynia (von Frey test) and Mechanical hyperalgesia (Randall-Selitto test) were assessed. […]
To assess for changes in sensation or in the development of mechanical allodynia, sensitivity to tactile stimulation was measured using the Dynamic Plantar Aesthesiometer (DPA, Ugo Basile, Italy). […]

CD1 male mice [9] = assay: CCI neuropathic pain model, mechanical hyperalgesia (Randall-Selitto test); format: in vivo; conditions: 1 h before test, day 7 and 14
Experimental: as §2, §4
Paw withdrawal threshold (PWT) to mechanical pressure was measured with a Randall-Selitto Analgesy-Meter for mice (Ugo Basile, Italy). PWT was measured on the ispsilateral paw at 1, 2, 4, 6 and 48 h post carrageenan injection. Each paw was tested twice per session. Cut-off force was set at 100 g.
as §5

iNOS = iNOS expression in the spinal cord of CCI-mice; format: in vivo; conditions: 10 mg/kg ip, 1 h before
COX-2 = COX-2 expression in the spinal cord of CCI-mice; format: in vivo; conditions: 10 mg/kg ip, 1 h before
NFκB-p65 = assay: NF-κB-p65 expression in the spinal cord of CCI-mice; format: in vivo; conditions: 10 mg/kg ip, 1 h before
[10] = derived from pI50, read-out: IC50 for inhibition of rat brain AEA hydrolysis
[11] = means ± s.e.m., n = 3–4, read-out: pI50 (-logIC50) for inhibition of rat brain AEA hydrolysis (converted)

Cc1cccnc1NC(=O)C(C)c1ccc(-c2ccccc2)c(F)c1 (stereo not shown) [Flu-AM1]
IC50 (FAAH [1]): 440 nM
pI50 (-logIC50) for inhibition of rat brain AEA hydrolysis (FAAH [1]): 6.36 ± 0.02
potency against FAAH versus flurbiprofen (FAAH [2]): about 60 fold

CC(C(=O)Nc1ncccc1C(F)(F)F)c1ccc(-c2ccccc2)c(F)c1 (stereo not shown) [Flu-AM3, 2–(2-Fluoro-(1,1'-biphenyl)-4-yl)-N-(3-(trifluoromethyl)pyridin-2-yl)propanamide]
IC50 (FAAH [3]; [10]): 110 nM
IC50 (FAAH [3]; [11]): 110 nM
increase in FAAH inhibitory activity versus Flu-AM1 (FAAH [3]; rat brain): about 4 fold

CC(C(=O)Nc1ncccc1Br)c1ccc(-c2ccccc2)c(F)c1 (stereo not shown) [Flu-AM4, N-(3-Bromopyridin-2-yl)-2-(2-fluoro-(1,1'-biphenyl)-4-yl)propanamide]
IC50 (FAAH [3]; [10]): 21 nM
IC50 (FAAH [3]; [11]): 21.4 nM
Ki (FAAH [3]; rat brain [3H]AEA hydrolysis, competitive model): 13 nM
increase in FAAH inhibitory activity versus Flu-AM1 (FAAH [3]; rat brain): approximately 20 fold
FAAH potency versus flurbiprofen (FAAH [3]; rat brain): more than three orders of magnitude greater than flurbiprofen
mode of FAAH inhibition (kinetics) (FAAH [3]; rat brain, best fit by Akaike's criteria): competitive inhibition
reversibility of FAAH inhibition (FAAH [3]; rat brain, preincubation and 20-fold dilution experiments): reversible inhibitor
potency towards rat brain FAAH versus mouse brain FAAH (FAAH [3]; rat vs mouse brain): an order of magnitude more potent towards rat brain FAAH than mouse brain FAAH
IC50 (FAAH [4]): 430 nM
inhibition of cyclooxygenation of AA by COX-1 (ovine COX-1): only partially inhibiting
inhibition of cyclooxygenation of 2-AG by COX-2 (human recombinant COX-2): completely inhibited
formalin-induced paw licking, local application (CD1 male mice [5]; 100 µg intraplantar, co-administered with formalin 5%, p < 0.001): reduced the paw licking time in both phases
formalin-induced paw licking, systemic administration (CD1 male mice [5]; 10 mg/kg ip, 1 h before formalin, p < 0.001 vs vehicle): reduce the behavioural responses in both phases
carrageenan-induced paw oedema (CD1 male mice [6]): reduced paw oedema at 2 and 4 h
carrageenan-induced paw hyperalgesia (CD1 male mice [7]): reduce hyperalgesia seen 2 h after carrageenan
CCI-induced mechanical allodynia (Von Frey) (CD1 male mice [8]; 1 mg/kg ip): did not show any effect
CCI-induced mechanical allodynia (Von Frey) (CD1 male mice [8]; 3 mg/kg ip): showed efficacy only at the 14-day time point in both tests
CCI-induced mechanical allodynia (Von Frey) (CD1 male mice [8]; 10 mg/kg ip): increased paw withdrawal latency in both test and in all experimental time
CCI-induced mechanical hyperalgesia (Randall-Selitto) (CD1 male mice [9]; 1 mg/kg ip): did not show any effect
CCI-induced mechanical hyperalgesia (Randall-Selitto) (CD1 male mice [9]; 3 mg/kg ip): showed efficacy only at the 14-day time point in both tests
CCI-induced mechanical hyperalgesia (Randall-Selitto) (CD1 male mice [9]; 10 mg/kg ip): increased paw withdrawal latency in both test and in all experimental time
iNOS expression in the spinal cord (iNOS): significantly reduced this expression
COX-2 expression in the spinal cord (COX-2): significantly reduced this expression
NFκB-p65 expression in the spinal cord (NFκB-p65): significantly reduced this expression

CC(C(=O)Nc1ncccc1Cl)c1ccc(-c2ccccc2)c(F)c1 (stereo not shown) [Flu-AM6, N-(3-Chloropyridin-2-yl)-2-(2-fluoro-(1,1'-biphenyl)-4-yl)propanamide]
IC50 (FAAH [3]; [10]): 19 nM
IC50 (FAAH [3]; [11]): 19.1 nM
increase in FAAH inhibitory activity versus Flu-AM1 (FAAH [3]; rat brain): approximately 20 fold
FAAH potency versus flurbiprofen (FAAH [3]; rat brain): more than three orders of magnitude greater than flurbiprofen

CC(C(=O)O)c1ccc(-c2ccccc2)c(F)c1 (stereo not shown) [Flurbiprofen]
IC50 (FAAH [1]): 29000 nM
pI50 (-logIC50) for inhibition of rat brain AEA hydrolysis (FAAH [1]): 4.53 ± 0.02

Cc1cccnc1NC(=O)C(C)c1ccc(CC(C)C)cc1 (stereo not shown) [Ibu-AM5]
potency against FAAH versus ibuprofen (FAAH [2]): 2-3 orders of magnitude
